pIC50: −log10 of the molar value. Where two headings read alike, the source gives them in different places.
Tests used:
CYP3A4/5 [1] = assay: Multi-concentration inhibitory activity curve of CYP3A4/5 enzymes; type: in vitro ADME; conditions: human liver microsomes
Method: (§1) The buffer was filtered through a 0.45 μm filter.
Liver microsome working solution (final system concentration of 0.5 mg/mL) was prepared. […] The above stock solution was diluted with acetonitrile (4-fold dilution, 6 non-zero concentrations).
The half-maximal inhibitory concentration (IC50) was calculated using Graph Pad Prism.

NUGC-3 cells = assay: Anti-proliferation effect on NUGC-3 cells (Cell Counting Kit-8); type: cell-based; conditions: Homo sapiens, NUGC-3, 120 h; 5 days of treatment
Method: Cell line NUGC-3 (JCRB, JCRB0822) was cultured in RPMI 1640 (Invitrogen, 11875-085) medium supplemented with 10% (v/v) fetal bovine serum (BI, 04-002-1A), according to the standard instructions of the American Type Culture Collection. The cell line was authenticated by short tandem repeat profiling.
In the proliferation assay, 1000 NUGC-3 cells were seeded in a 96-well flat clear bottom, TC-treated plate (Corning, 3903) in 200 μL of medium per well, and allowed to recover overnight in culture medium. Compounds were added with increasing concentration, with DMSO treatment serving as a […] control. After 5 days of treatment, the plate was equilibrated to room temperature for 30 minutes, and the number of living cells was measured by the addition of the Cell Counting Kit-8 reagent (MCE, HY-K0301). Absorbance was measured on an Enspire (Perkin elme). The relative viability of each group was presented as the percentage change relative to the […] control group and then fit to a four-parameter logit non-linear curve using the program XLFit (IDBS)

[2] = Metabolic stability in liver microsomes; type: in vitro ADME; conditions: for microsomal CLint at 1 μM: read-out: In vitro Clint (μL/min/mg protein); for half-life at 1 μM: read-out: In vitro t1/2
Method: The test compound and the positive control compound (dextromethorphan as a control compound) were dissolved respectively in DMSO to prepare a stock solution with a concentration of 10 mM, and the above stock solution was diluted into 200 μM working solution with DMSO. 8.709 g of potassium hydrogen phosphate (K2HPO4) was dissolved in 950 mL of water, and the pH value of the solution was adjusted to 7.4 with hydrochloric acid, and then the volume was adjusted to 1000 mL with water. After filtration using a 0.22 μm filter membrane, the mixture was stored in a 4° C. refrigerator for later use. After liver microsomes of various species (protein concentration of 20 mg/mL) were thawed in a 37° C. water bath, the liver microsomes were diluted with a phosphate buffer respectively to obtain a liver microsome working solution with protein concentration of 0.629 mg/mL. 5 mM NADPH solution was prepared using the above phosphate buffer for later use. 1 mg/mL stock solution of terfenadine/tolbutamide was prepared with DMSO and then diluted with a 50% methanol/50% acetonitrile mixed solution to a reaction stop solution containing 5/10 ng/mL (terfenadine/tolbutamide) internal standard.
238.5 μL of liver microsome working solutions of various species were added to a 1.1 mL microtube, and 1.5 μL of the test compound working solution or the positive control compound (dextromethorphan) working solution (200 μM) was added respectively, mixed well, and pre-incubated in a 37° C. water bath for 5 minutes. 60 μL of NADPH solution was added to start the reaction, and after mixing well, at the time points of 0, 5, 15, 30, and 60 minutes after the reaction, 30 μL of the reaction mixture was respectively pipetted and added to 300 μL of the reaction stop solution. Samples from all time points were vortexed vigorously for 1 minute and centrifuged at 4000 rpm for 15 minutes at 4° C. 100 μL of the supernatant was added to 100 μL of pure water and mixed well for LC-MS/MS analysis.
The slope (ke) was determined by plotting the natural logarithm of the percentage of compound remaining against time, and the Tin and intrinsic clearance (CLint) were calculated based on the first-order kinetic formula: […]
The compound remaining rate is calculated as follows:
Intrinsic clearance CLint (μL/min/mg protein)=0.693*1000/T1/2/protein concentration (0.5 mg protein/mL)

[3] = biological target: voltage-gated potassium channel hERG (Homo sapiens (Human), UniProt Q12809); assay: hERG potassium channel inhibitory activity test (manual patch clamp, HEK293); type: cell-based; conditions: HEK293 cells stably expressing hERG
Method: This experiment was conducted to detect the effect of compounds in five concentrations on hERG channel current, obtaining a dose-effect curve and calculating the IC50.
Cell line and cell culture: HEK293 cell line stably expressing the hERG ion channel (Cat. No.: K1236) was purchased from Invitrogen Company. […] When the cell density grows to 40% to 80% of the bottom area of the culture dish, the cells were digested with trypsin and passaged three times per week. Prior to the experiment, cells were cultured in a 3.5 cm culture dish at a density of 5×10^5, induced with 1 μg/mL doxycycline for 48 hours, and then the cells were digested and seeded on glass slides for subsequent manual patch clamp experiments. […]
Experimental procedure: A coverslip loaded with HEK293 cells in a culture dish was placed in the perfusion chamber of the microscope stage. […] The hERG current used to detect the test compound was continuously recorded for 120 seconds before administration to evaluate the stability of the hERG current generated by the test cells. […] Test of the inhibitory effect of the test compound on hERG current: First, the hERG current measured in the extracellular fluid containing 0.1% DMSO was used as the detection baseline. […] After each perfusion was completed, approximately 5 minutes were waited to allow the compounds to fully act on the cells, and hERG currents were synchronously recorded.

CYP2C9 = CYP2C9 (Homo sapiens (Human), UniProt P11712); assay: Inhibitory activity on CYP isoenzymes at a single concentration; type: in vitro ADME; conditions: pH 7.4, probe diclofenac; final compound concentration 10 μM; human liver microsomes; substrate diclofenac; read-out: Inhibition rate (%) CYP2C9
From the text: as §1

CYP3A4/5 [4] = assay: as above; type: in vitro ADME; conditions: final compound concentration 10 μM, human liver microsomes
From the text: as §1

CYP2D6 = CYP2D6 (Homo sapiens (Human), UniProt P10635); assay: as above; type: in vitro ADME; conditions: pH 7.4, probe dextromethorphan; final compound concentration 10 μM; human liver microsomes; substrate dextromethorphan; read-out: Inhibition rate (%) CYP2D6
From the text: as §1

[5] = pH 7.4, probe midazolam, substrate midazolam, read-out: CYP3A4/5 IC50 (μM) (Midazolam)
[6] = pH 7.4, probe testosterone, substrate testosterone, read-out: CYP3A4/5 IC50 (μM) (Testosterone)
[7] = ICR/CD-1, pH 7.4, Mouse liver microsomes
[8] = Sprague Dawley, pH 7.4, Rat liver microsomes
[9] = pH 7.4, probe midazolam, substrate midazolam, read-out: Inhibition rate (%) CYP3A4/5 (Midazolam)

Chain of CYP2C9 (P11712 whole entry): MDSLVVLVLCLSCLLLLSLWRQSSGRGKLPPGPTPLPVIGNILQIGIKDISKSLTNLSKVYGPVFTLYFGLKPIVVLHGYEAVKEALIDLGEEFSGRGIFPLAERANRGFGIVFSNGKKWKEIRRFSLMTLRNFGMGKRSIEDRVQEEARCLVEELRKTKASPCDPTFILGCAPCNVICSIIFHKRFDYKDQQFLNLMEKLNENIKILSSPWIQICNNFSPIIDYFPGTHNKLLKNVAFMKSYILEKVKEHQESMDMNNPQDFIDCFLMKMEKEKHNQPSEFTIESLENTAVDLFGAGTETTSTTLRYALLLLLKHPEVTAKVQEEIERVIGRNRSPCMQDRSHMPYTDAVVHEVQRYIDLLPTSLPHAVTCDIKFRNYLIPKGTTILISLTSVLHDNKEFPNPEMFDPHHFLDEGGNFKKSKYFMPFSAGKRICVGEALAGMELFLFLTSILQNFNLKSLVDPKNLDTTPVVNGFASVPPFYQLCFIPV
Chain of voltage-gated potassium channel hERG (Q12809 whole entry): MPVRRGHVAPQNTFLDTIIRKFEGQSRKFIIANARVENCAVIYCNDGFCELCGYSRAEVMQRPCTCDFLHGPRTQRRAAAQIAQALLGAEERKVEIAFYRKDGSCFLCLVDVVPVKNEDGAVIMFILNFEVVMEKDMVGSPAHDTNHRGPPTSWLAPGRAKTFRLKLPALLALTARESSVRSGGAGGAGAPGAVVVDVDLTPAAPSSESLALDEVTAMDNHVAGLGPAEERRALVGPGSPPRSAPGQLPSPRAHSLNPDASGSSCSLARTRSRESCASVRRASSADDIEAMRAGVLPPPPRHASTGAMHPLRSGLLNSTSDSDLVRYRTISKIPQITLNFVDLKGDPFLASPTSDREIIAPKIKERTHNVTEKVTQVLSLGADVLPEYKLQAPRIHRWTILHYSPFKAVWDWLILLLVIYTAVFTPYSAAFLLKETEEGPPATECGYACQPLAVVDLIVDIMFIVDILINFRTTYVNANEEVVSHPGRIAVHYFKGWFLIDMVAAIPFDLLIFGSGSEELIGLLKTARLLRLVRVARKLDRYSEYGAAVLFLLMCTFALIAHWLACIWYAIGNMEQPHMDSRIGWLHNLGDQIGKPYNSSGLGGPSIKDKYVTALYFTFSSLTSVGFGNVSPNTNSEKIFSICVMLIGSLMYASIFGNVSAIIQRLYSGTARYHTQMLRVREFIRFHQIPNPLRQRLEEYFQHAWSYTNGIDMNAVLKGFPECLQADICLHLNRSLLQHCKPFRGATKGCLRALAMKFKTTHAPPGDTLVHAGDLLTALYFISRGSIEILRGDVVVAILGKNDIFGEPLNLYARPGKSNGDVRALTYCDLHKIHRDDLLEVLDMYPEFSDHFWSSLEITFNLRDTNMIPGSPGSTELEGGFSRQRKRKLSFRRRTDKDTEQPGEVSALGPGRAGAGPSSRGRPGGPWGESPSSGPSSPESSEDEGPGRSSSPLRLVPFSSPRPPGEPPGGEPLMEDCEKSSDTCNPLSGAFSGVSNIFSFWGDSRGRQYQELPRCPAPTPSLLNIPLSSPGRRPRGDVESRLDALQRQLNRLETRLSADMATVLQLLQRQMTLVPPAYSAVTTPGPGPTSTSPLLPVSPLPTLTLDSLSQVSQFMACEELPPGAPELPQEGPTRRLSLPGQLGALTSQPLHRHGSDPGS
Chain of CYP2D6 (P10635 whole entry): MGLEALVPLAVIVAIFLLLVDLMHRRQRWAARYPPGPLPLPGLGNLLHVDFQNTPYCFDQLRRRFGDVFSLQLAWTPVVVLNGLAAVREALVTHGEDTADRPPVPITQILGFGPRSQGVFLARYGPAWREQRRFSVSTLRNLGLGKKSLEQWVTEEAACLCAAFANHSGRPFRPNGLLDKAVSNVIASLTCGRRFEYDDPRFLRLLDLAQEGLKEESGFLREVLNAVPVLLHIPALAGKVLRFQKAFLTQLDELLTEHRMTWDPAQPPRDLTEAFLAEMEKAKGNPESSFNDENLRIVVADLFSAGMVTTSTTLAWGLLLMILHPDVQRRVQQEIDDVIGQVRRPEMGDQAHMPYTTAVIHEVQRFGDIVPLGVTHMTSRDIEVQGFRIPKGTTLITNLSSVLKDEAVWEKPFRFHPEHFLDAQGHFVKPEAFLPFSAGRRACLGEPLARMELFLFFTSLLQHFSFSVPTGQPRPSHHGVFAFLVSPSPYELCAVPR

| Structure (SMILES) | IC50 at 10 min (CYP3A4/5 [1]; [5]) | IC50 at 10 min (CYP3A4/5 [1]; [6]) | pIC50 (NUGC-3 cells) | microsomal CLint at 1 μM [2, 7] | half-life at 1 μM [2, 7] | microsomal CLint at 1 μM [2, 8] | half-life at 1 μM [2, 8] | microsomal CLint at 1 μM ([2]; pH 7.4, Human liver microsomes) | half-life at 1 μM ([2]; pH 7.4, Human liver microsomes) | pIC50 [3] | inhibition at 10 min, 10 µM (CYP2C9) | inhibition at 10 min, 10 µM (CYP3A4/5 [4]; [9]) | inhibition at 10 min, 10 µM (CYP3A4/5 [4]; pH 7.4, probe testosterone, substrate testosterone, NI: no inhibition, read-out: Inhibition rate (%) CYP3A4/5 (Testosterone)) | inhibition at 10 min, 10 µM (CYP2D6) |
| --- | --- | --- | --- | --- | --- | --- | --- | --- | --- | --- | --- | --- | --- | --- |
| COc1nc(C(=O)NS(C)(=O)=O)ccc1NCC#Cc1cc2c(N[C@@H]3CCN(C)C[C@@H]3F)cccn2c1CC(F)(F)F [Cpd-1, 5-((3-(8-(((3S,4R)-3-Fluoro-1-methylpiperidin-4-yl)amino)-3-(2,2,2-trifluoroethyl)indolizin-2-yl)prop-2-yn-1-yl)amino)-6-methoxy-N-(methylsulfonyl)picolinamide] | > 50 µM | > 50 µM | 7.00 | 13.7 µL/min/mg | 1.2 h | 35 µL/min/mg | 0.467 h | 7.3 µL/min/mg | 2.27 h | < 4.52 | 6.7% | 9.8% | 3.7% | 1.6% |
| [2H]C([2H])([2H])Oc1nc(C(=O)NS(C)(=O)=O)ccc1NCC#Cc1cc2c(N[C@@H]3CCN(C)C[C@@H]3F)cccn2c1CC(F)(F)F [Cpd-2, 5-((3-(8-(((3S,4R)-3-Fluoro-1-methylpiperidin-4-yl)amino)-3-(2,2,2-trifluoroethyl)indolizin-2-yl)prop-2-yn-1-yl)amino)-6-(methoxy-d3)-N-(methylsulfonyl)picolinamide] | > 50 µM | > 50 µM | 7.24 | 12.6 µL/min/mg | 1.83 h | 11.7 µL/min/mg | 1.98 h | < 5.4 µL/min/mg | > 4.27 h | < 4.52 | 8.9% | 8.7% | – | 7.2% |
